Measurements as given in PubChem BioAssay AID248 (DTP/NCI, 2004).
Values joined by “and” are separate entries in the source; they are usually repeats but may differ in a detail not shown here. Equal entries are not always repeated. Inconclusive results and toxic doses are left out. Rule as the data show it: active = T/C of 150% or more; inactive = T/C below 125%.

Test system: L1210 leukemia ip in BDF1 mice, survival T/C
Test: NCI In Vivo Anticancer Drug Screen. Data for tumor model L1210 Leukemia (intraperitoneal) in B6D2F1 (BDF1) mice
Details: higher = longer survival
Method in brief: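 Survival endpoint. Drug-treated group vs vehicle group, expressed as T divided by C. Tumor passaged by transplantation.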

[1] = endpoint: mean survival time, dose: 100.0 mg/kg/injection, schedule: Q01DX001 (ip), vehicle: saline
[2] = endpoint: mean survival time, dose: 200.0 mg/kg/injection, schedule: Q01DX001 (ip), vehicle: saline
[3] = endpoint: mean survival time, dose: 400.0 mg/kg/injection, schedule: Q01DX001 (ip), vehicle: saline
[4] = endpoint: mean survival time, dose: 100.0 mg/kg/injection, schedule: Q01DX009 (ip), vehicle: Klucel (hydroxypropylcellulose) (HPC)
[5] = endpoint: mean survival time, dose: 100.0 mg/kg/injection, schedule: Q04DX003 (ip), vehicle: Klucel (hydroxypropylcellulose) (HPC)
[6] = endpoint: mean survival time, dose: 200.0 mg/kg/injection, schedule: Q04DX003 (ip), vehicle: Klucel (hydroxypropylcellulose) (HPC)
[7] = endpoint: mean survival time, dose: 100.0 mg/kg/injection, schedule: Q04DX003 (ip), vehicle: saline
[8] = endpoint: mean survival time, dose: 200.0 mg/kg/injection, schedule: Q01DX009 (ip), vehicle: saline with Tween-80
[9] = endpoint: mean survival time, dose: 200.0 mg/kg/injection, schedule: Q04DX003 (ip), vehicle: saline
[10] = endpoint: mean survival time, dose: 400.0 mg/kg/injection, schedule: Q04DX003 (ip), vehicle: saline
[11] = endpoint: mean survival time, dose: 200.0 mg/kg/injection, schedule: Q01DX009 (ip), vehicle: Klucel (hydroxypropylcellulose) (HPC)
[12] = endpoint: mean survival time, dose: 400.0 mg/kg/injection, schedule: Q01DX009 (ip), vehicle: Klucel (hydroxypropylcellulose) (HPC)
[13] = endpoint: mean survival time, dose: 100.0 mg/kg/injection, schedule: Q01DX009 (ip), vehicle: saline with Tween-80

Measured: T/C

Cn1c2nc(=O)[nH]c(=O)c-2cc2ccccc21
inactive: [1] 100 % of control | [2] 94 % of control | [3] 97 % of control

CN(C)CCC(O)(Cc1ccccc1)c1ccccc1 (configuration not stated)
inactive: endpoint: mean survival time, dose: 50.0 mg/kg/injection, schedule: Q01DX009 (ip), vehicle: Klucel (hydroxypropylcellulose) (HPC) 95 % of control | [4] 101 % of control | [5] 95 % of control | [6] 101 % of control

CCCCCCCCCCCCOC(=O)OC1CCC2(C)C(=CCC3C2CCC2(C)C(C(C)CCCC(C)C)CCC32)C1 (configuration not stated)
inactive: endpoint: mean survival time, dose: 100.0 mg/kg/injection, schedule: Q01DX008 (sc), vehicle: olive oil, sesame oil, peanut oil 111 % of control | endpoint: mean survival time, dose: 100.0 mg/kg/injection, schedule: Q04DX003 (sc), vehicle: olive oil, sesame oil, peanut oil 109 % of control | endpoint: mean survival time, dose: 200.0 mg/kg/injection, schedule: Q01DX008 (sc), vehicle: olive oil, sesame oil, peanut oil 107 % of control | endpoint: mean survival time, dose: 200.0 mg/kg/injection, schedule: Q04DX003 (sc), vehicle: olive oil, sesame oil, peanut oil 100 % of control | endpoint: mean survival time, dose: 400.0 mg/kg/injection, schedule: Q01DX008 (sc), vehicle: olive oil, sesame oil, peanut oil 107 % of control | endpoint: mean survival time, dose: 400.0 mg/kg/injection, schedule: Q04DX003 (sc), vehicle: olive oil, sesame oil, peanut oil 109 % of control

[O-][n+]1ccccc1CCSCCc1cccc[n+]1[O-]
inactive: [1] 101 % of control | [2] 88 % of control | [3] 97 % of control

CC(=O)Nc1ccc2c(c1)C(N)c1ccccc1-2 (configuration not stated)
inactive: endpoint: mean survival time, dose: 88.0 mg/kg/injection, schedule: Q01DX Z (ip), vehicle: carboxymethylcellulose (CMC) 103 % of control | endpoint: mean survival time, dose: 88.0 mg/kg/injection, schedule: Q01DX Z (ip), vehicle: saline 94 % of control | [1] 113 % of control | endpoint: mean survival time, dose: 100.0 mg/kg/injection, schedule: Q01DX009 (ip), vehicle: saline 105 % of control | [7] 98 % of control | endpoint: mean survival time, dose: 132.0 mg/kg/injection, schedule: Q01DX009 (ip), vehicle: saline with Tween-80 111 % of control | endpoint: mean survival time, dose: 132.0 mg/kg/injection, schedule: Q01DX009 (ip), vehicle: saline 99 % of control | endpoint: mean survival time, dose: 133.0 mg/kg/injection, schedule: Q01DX Z (ip), vehicle: carboxymethylcellulose (CMC) 92 % of control | endpoint: mean survival time, dose: 133.0 mg/kg/injection, schedule: Q01DX Z (ip), vehicle: saline 98 % of control | [2] 113 % of control | [8] 118 % of control | endpoint: mean survival time, dose: 200.0 mg/kg/injection, schedule: Q01DX009 (ip), vehicle: saline 108 % of control | endpoint: mean survival time, dose: 200.0 mg/kg/injection, schedule: Q01DX Z (ip), vehicle: carboxymethylcellulose (CMC) 105 % of control | [9] 103 % of control | endpoint: mean survival time, dose: 300.0 mg/kg/injection, schedule: Q01DX009 (ip), vehicle: saline 100 % of control | [3] 109 % of control | [10] 122 % of control

NC(N)=NNC=NCCc1ccc(O)cc1
inactive: endpoint: mean survival time, dose: 15.0 mg/kg/injection, schedule: Q01DX Z (ip), vehicle: carboxymethylcellulose (CMC) 107 % of control | endpoint: mean survival time, dose: 30.0 mg/kg/injection, schedule: Q01DX Z (ip), vehicle: carboxymethylcellulose (CMC) 98 % of control | endpoint: mean survival time, dose: 60.0 mg/kg/injection, schedule: Q01DX Z (ip), vehicle: carboxymethylcellulose (CMC) 101 % of control | endpoint: mean survival time, dose: 120.0 mg/kg/injection, schedule: Q01DX Z (ip), vehicle: carboxymethylcellulose (CMC) 103 % of control

O=C1OCN(c2ccccc2)/C1=C/c1ccccc1
inactive: [1] 89 % of control | [2] 94 % of control | [3] 93 % of control

CCCCc1cnc(NCCCC(N)C(=O)O)nc1 (configuration not stated)
inactive: endpoint: mean survival time, dose: 25.0 mg/kg/injection, schedule: Q04DX002 (ip), vehicle: saline 100 % of control | endpoint: mean survival time, dose: 50.0 mg/kg/injection, schedule: Q04DX002 (ip), vehicle: saline 95 % of control | endpoint: mean survival time, dose: 100.0 mg/kg/injection, schedule: Q04DX002 (ip), vehicle: saline 92 % of control

Clc1ccc(C=Nc2ccc3c(c2)Cc2ccccc2-3)cc1
inactive: [4] 90 % of control | [5] 96 % of control | [11] 93 % of control | [6] 102 % of control | [12] 92 % of control | endpoint: mean survival time, dose: 400.0 mg/kg/injection, schedule: Q04DX003 (ip), vehicle: Klucel (hydroxypropylcellulose) (HPC) 91 % of control

S=C(Nc1ccccc1)Nc1ccccc1Cl
inactive: endpoint: mean survival time, dose: 100.0 mg/kg/injection, schedule: Q04DX002 (ip), vehicle: Klucel (hydroxypropylcellulose) (HPC) 100 % of control | endpoint: mean survival time, dose: 200.0 mg/kg/injection, schedule: Q04DX002 (ip), vehicle: Klucel (hydroxypropylcellulose) (HPC) 100 % of control | endpoint: mean survival time, dose: 400.0 mg/kg/injection, schedule: Q04DX002 (ip), vehicle: Klucel (hydroxypropylcellulose) (HPC) 95 % of control

CCC1(CCCCCCC(=O)CC(C)=O)OCCO1
inactive: [4] 105 % of control | [11] 104 % of control | [12] 91 % of control

O=C(O)/C(=C(/Cc1ccccc1)C(=O)c1ccccc1)c1ccccc1
inactive: endpoint: mean survival time, dose: 50.0 mg/kg/injection, schedule: Q01DX009 (ip), vehicle: saline with Tween-80 98 % of control | [13] 88 % of control | [8] 91 % of control

C1=COC(C2NCCCN2)CC1 (configuration not stated)
inactive: [1] 102 % of control | [2] 111 % of control | [3] 106 % of control

CN1CCC(CN2c3ccccc3Sc3ccccc32)CC1
inactive: endpoint: mean survival time, dose: 6.25 mg/kg/injection, schedule: Q01DX009 (ip), vehicle: saline with Tween-80 93 % of control | endpoint: mean survival time, dose: 12.5 mg/kg/injection, schedule: Q01DX009 (ip), vehicle: saline with Tween-80 93 % of control | endpoint: mean survival time, dose: 15.0 mg/kg/injection, schedule: Q01DX Z (ip), vehicle: methylcellulose (MC) 104 % of control | endpoint: mean survival time, dose: 25.0 mg/kg/injection, schedule: Q01DX009 (ip), vehicle: saline with Tween-80 93 % of control | endpoint: mean survival time, dose: 25.0 mg/kg/injection, schedule: Q04DX003 (ip), vehicle: saline 108 % of control | endpoint: mean survival time, dose: 30.0 mg/kg/injection, schedule: Q01DX Z (ip), vehicle: methylcellulose (MC) 108 % of control | endpoint: mean survival time, dose: 45.0 mg/kg/injection, schedule: Q01DX Z (ip), vehicle: methylcellulose (MC) 96 % of control | endpoint: mean survival time, dose: 50.0 mg/kg/injection, schedule: Q04DX003 (ip), vehicle: saline 100 % of control and 109 % of control | [1] 103 % of control | [7] 97 % of control | [2] 102 % of control | [9] 106 % of control and 108 % of control | [10] 97 % of control

Cc1cc(C)c(CCN(C)C)c(C)c1
inactive: endpoint: mean survival time, dose: 50.0 mg/kg/injection, schedule: Q01DX001 (ip), vehicle: saline 101 % of control | [1] 97 % of control | [2] 91 % of control

CC1CC(NC(=S)NC(=O)c2ccc(Cl)cc2Cl)CC(C)(C)C1 (configuration not stated)
inactive: [4] 91 % of control | [11] 96 % of control | [12] 91 % of control

C[S+](C)CC(=O)c1ccccc1
inactive: [7] 95 % of control | [9] 104 % of control

Cc1ccc(C(=O)c2ccccc2C(=O)O)cc1C
inactive: [13] 90 % of control | endpoint: mean survival time, dose: 100.0 mg/kg/injection, schedule: Q04DX002 (ip), vehicle: saline with Tween-80 93 % of control | [8] 93 % of control | endpoint: mean survival time, dose: 200.0 mg/kg/injection, schedule: Q04DX002 (ip), vehicle: saline with Tween-80 114 % of control | endpoint: mean survival time, dose: 400.0 mg/kg/injection, schedule: Q01DX009 (ip), vehicle: saline with Tween-80 87 % of control | endpoint: mean survival time, dose: 400.0 mg/kg/injection, schedule: Q04DX002 (ip), vehicle: saline with Tween-80 101 % of control

c1ccc(CNc2ncnc3[nH]ncc23)cc1
inactive: endpoint: mean survival time, dose: 8.0 mg/kg/injection, schedule: Q01DX009 (ip), vehicle: saline 98 % of control | endpoint: mean survival time, dose: 16.0 mg/kg/injection, schedule: Q01DX009 (ip), vehicle: saline 103 % of control | endpoint: mean survival time, dose: 25.0 mg/kg/injection, schedule: Q01DX Z (ip), vehicle: carboxymethylcellulose (CMC) 123 % of control | endpoint: mean survival time, dose: 32.0 mg/kg/injection, schedule: Q01DX009 (ip), vehicle: saline 98 % of control | endpoint: mean survival time, dose: 50.0 mg/kg/injection, schedule: Q01DX Z (ip), vehicle: carboxymethylcellulose (CMC) 109 % of control | [2] 105 % of control | [3] 101 % of control | endpoint: mean survival time, dose: 800.0 mg/kg/injection, schedule: Q01DX001 (ip), vehicle: saline 102 % of control | endpoint: median survival time, dose: 8.0 mg/kg/injection, schedule: Q01DX009 (ip), vehicle: saline 93 % of control and 100 % of control and 118 % of control | endpoint: median survival time, dose: 16.0 mg/kg/injection, schedule: Q01DX009 (ip), vehicle: saline 100 % of control (2×) and 112 % of control | endpoint: median survival time, dose: 32.0 mg/kg/injection, schedule: Q01DX009 (ip), vehicle: saline 105 % of control and 112 % of control | endpoint: median survival time, dose: 64.0 mg/kg/injection, schedule: Q01DX009 (ip), vehicle: saline 100 % of control (2×) and 122 % of control

CN1CCC(CO)CC1
inactive: [1] 94 % of control | [2] 100 % of control
